Measurements taken from US6642256B2, “Piperidine derivatives as subtype selective N-Methyl-D-Aspartate antagonists” (Warner-Lambert Company LLC, priority 2000, dated 2003).

Experiments:
[1] = molecular target: T1, NR1A/NR2B NMDA receptor subtype (Rattus norvegicus, UniProt P35439+Q00960); experiment: [3H]Ifenprodil binding assay (IFPNR), rat forebrain membranes; conditions: Table 1, 4 nM [3H]-ifenprodil, read-out: IFPNR (IC50 μM)
T1 construct: buffy coat membrane fraction was prepared from frozen adult rat forebrains; tissue Zivic-Miller Laboratories, Inc; host or cells: adult rat forebrain membranes
T1 sequence (Q00960 27-1482, other chains not shown): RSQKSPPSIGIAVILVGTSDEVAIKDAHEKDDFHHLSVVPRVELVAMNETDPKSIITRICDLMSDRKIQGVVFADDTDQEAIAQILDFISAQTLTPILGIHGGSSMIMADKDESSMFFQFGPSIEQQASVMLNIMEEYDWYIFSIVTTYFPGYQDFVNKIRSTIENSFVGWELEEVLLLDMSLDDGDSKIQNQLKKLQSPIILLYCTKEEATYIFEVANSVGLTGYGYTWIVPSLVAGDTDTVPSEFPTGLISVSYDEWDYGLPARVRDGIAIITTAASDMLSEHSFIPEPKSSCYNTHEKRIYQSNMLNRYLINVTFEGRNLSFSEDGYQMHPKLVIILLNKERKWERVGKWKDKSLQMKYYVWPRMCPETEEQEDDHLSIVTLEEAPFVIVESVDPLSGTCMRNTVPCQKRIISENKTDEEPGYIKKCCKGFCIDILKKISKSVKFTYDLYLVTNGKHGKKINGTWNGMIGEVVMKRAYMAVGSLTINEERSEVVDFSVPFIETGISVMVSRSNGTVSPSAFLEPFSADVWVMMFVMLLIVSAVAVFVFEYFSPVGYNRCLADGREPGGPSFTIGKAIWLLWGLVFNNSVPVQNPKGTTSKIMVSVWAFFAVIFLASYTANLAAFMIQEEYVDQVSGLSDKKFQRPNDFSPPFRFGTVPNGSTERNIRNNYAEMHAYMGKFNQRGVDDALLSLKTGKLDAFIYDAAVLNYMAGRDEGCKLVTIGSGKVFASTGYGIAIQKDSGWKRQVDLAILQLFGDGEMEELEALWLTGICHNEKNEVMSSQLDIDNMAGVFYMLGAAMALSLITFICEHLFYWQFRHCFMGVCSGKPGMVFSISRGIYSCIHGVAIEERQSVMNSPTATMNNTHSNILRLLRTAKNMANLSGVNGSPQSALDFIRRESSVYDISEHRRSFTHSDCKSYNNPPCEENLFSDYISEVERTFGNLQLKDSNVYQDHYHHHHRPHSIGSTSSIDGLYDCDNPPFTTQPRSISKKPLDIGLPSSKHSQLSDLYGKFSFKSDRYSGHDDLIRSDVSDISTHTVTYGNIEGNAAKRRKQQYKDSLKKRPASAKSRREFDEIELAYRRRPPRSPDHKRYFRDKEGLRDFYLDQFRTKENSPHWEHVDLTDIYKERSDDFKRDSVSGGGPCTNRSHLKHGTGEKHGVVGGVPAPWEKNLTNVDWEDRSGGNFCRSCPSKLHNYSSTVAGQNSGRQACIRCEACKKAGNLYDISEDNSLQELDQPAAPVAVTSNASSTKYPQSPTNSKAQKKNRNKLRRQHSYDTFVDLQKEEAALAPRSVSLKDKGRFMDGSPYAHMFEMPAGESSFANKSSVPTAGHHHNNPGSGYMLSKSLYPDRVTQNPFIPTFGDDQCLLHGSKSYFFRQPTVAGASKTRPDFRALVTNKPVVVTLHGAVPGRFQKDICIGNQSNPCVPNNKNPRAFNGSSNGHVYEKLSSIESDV
Method: b. [^3H]Ifenprodil Binding Assay (IFPNR) Protocol:
Ifenprodil, [phenyl-^3H]-(specific activity, 66.2 Ci/mmol) was purchased from Dupont NEN Research Products (Boston, Mass.). Ifenprodil tartrate was purchased from Research Biochemicals International (Natick, Mass.). HEPES, glutamate and glycine were purchased from Sigma Chemical Co. (St. Louis, Mo.).
All buffers and reagents used in assay incubations or to dissolve drugs were prepared using water purified through a Milli-Q reverse osmosis system (Millipore Corp., Bedford, Mass.) and treated with UV emissions. Prior to use in the assays buffers were further filtered through a sterile Coming filtration unit (Coming Glass Works, Coming, N.Y.) containing a 0.2 micron filter. Buffer used to rinse the membranes on the assay filters was prepared with purified water, but was not refiltered and was stored no longer than 5 days. Stock solutions of the drugs (usually 10 mM) were dissolved in 20 mM HEPES-KOH buffer pH 7.4 (assay buffer) with the addition of 1 to 5 μL of glacial AcOH, if needed to keep them in solution. Eliprodil was used as the reference NMDA antagonist. A stock solution of eliprodil was prepared, and was buffered with the addition of 10% DMSO. All subsequent dilutions from the stock solution were made in buffer.
An extensively washed buffy coat membrane fraction was prepared from frozen adult rat forebrains (Zivic-Miller Laboratories, Inc., Zelienople, Pa.) as described by Coughenour L. L.; Cordon, J. J., J. Pharmacol. Exp. Ther., 1997;280:584-592, and stored at −80° C. On the day of the assay, pellets of the frozen membrane fractions were resuspended in 35 mL of assay buffer at pH 7.4 using a POLYTRON (Kinematica A. G. Company, Littau, Switzerland) mixer at setting 6. After incubation at 37° C. for 30 minutes in a shaking water bath, the homogenate was centrifuged 40,000×g for 10 minutes at 4° C. The pellets were resuspended in fresh buffer and centrifuged 3 more times before final suspension for use in the assay.
(iii) [^3H]Ifenprodil Binding protocol:
Triplicate incubations were carried out in a volume of 0.5 mL in 1.3 mL polypropylene tubes (Marsh Biomedical Products Inc, Rochester, N.Y.) for 2 hours at room temperature. Incubations contained invention compounds, membranes (100-200 μg protein) and 4 nM [^3H]-ifenprodil in 20 mM HEPES-KOH buffer, pH 7.4 (assay buffer). Assays were started by addition of the membranes. Bound radioligand was separated by filtration under reduced pressure using a TOMTEC Mach II, 96-well cell harvester (Tomtec Inc, Orange, Conn.). Filtration was through Whatman GF/B glass fiber filters (Whatman Ltd., Maidstone, England), which had been soaked for at least 15 minutes in 0.3% polyethylenimine and allowed to air dry. The filters were rinsed with 3 mL of ice cold assay buffer within 6 seconds. Air was allowed to pass through the filters for an additional 10 seconds to remove residual moisture. The filter mat was supported on a cold (−20° C.) TEFLON (E. I. Du Pont de Nemours and Company, Wilmington, Del.) coated support, and filters from individual wells were separated and placed in Mini Poly-Q vials (Becklman Instruments Inc, Fullerton, Calif.) and filled with 4 mL of scintillation cocktail (Beckman Ready Protein^+). Radioactivity retained on the filter was determined by liquid scintillation spectrophotometry. Nonspecific binding was defined as the binding in the presence of […] ifenprodil. Ninety percent of the total binding of ifenprodil was specific binding at the NR1A/NR2B NMDA receptor subtype active site (as opposed to binding at a remote site).
Binding curves were statistically analyzed for a best 1- or 2-site competition fit using GRAPHPAD PRISM software (GraphPad Software Inc, San Diego, Calif.), a computer program used to analyze and graph scientific data. The normalized data was fitted by nonweighted nonlinear regression to either [formula]
Control data was entered as 100%, and no parameters were constrained. […]

Male Wistar albino rats = experiment: Formalin footpad test (FT); format: in vivo, rat; conditions: Table 1; PO; statistically significant decrease in late-phase pain behaviour versus vehicle
Method: a. The Formalin Footpad Test (FT):
The FT model was used to test invention compounds for pain alleviating properties. The model produces a biphasic response in a test animal that results from a change in pain intensity over time. The FT model utilizes an injection of dilute formalin into the hindpaw of a rodent, which produces high intensity acute pain behaviors which are measured for the first 10 minutes post formalin injection (early phase responding). High intensity acute pain behaviors include rapid licking or biting of the injected hindpaw. The second phase is a prolonged period of lower intensity pain behaviors (late phase responding) which are measured from 11 to 45 minutes post-formalin injection.
Male Wistar albino rats (Harlan Sprague-Dawley Labs), weighing approximately 100 g at the time of testing, were used. Animals were group-housed and acclimated to the housing facility for 1 week prior to testing. Animals were maintained on a 12-hour/12-hour light/dark cycle and fed block rodent chow. From 4 to 8 animals were randomly assigned to either a vehicle-only dose group or a vehicle-plus invention compound treatment group on the day of testing.
The testing apparatus was a 16″×8″ box divided into two 8″×8″ testing chambers. Each testing chamber comprised a floor and 3 walls made of clear plastic mirrors, and a fourth wall which was clear plastic that allowed observation of animal behavior. The top of each chamber was covered with a metal screen during testing to prevent animals from climbing out of the chamber. Two animals were tested simultaneously in the adjoining boxes, but animals were unable to observe one another.
Animals were weighed and placed into holding cages (2 animals per cage) in the testing room prior to dosing. Following approximately 30 minutes of acclimation to the testing room, each pair of animals was administered orally (PO) by gavage a mixture of invention compound plus vehicle or vehicle alone. The treated animals were then placed in individual test chambers and allowed to acclimate to the chambers for at least 20 minutes. Then 50 μL of a 2.5% solution of formalin in vehicle was injected subcutaneously (SC) in the plantar surface of the left hindpaw from 30 to 120 minutes after administration of the invention compound. A session timer was started following the formalin injection, and the amount of time the animal spent licking or biting the injected paw was clocked with a hand-held stopwatch. The cumulative time spent engaging in a pain response was manually recorded at 5-minute intervals for 45 minutes post formalin injection. Early phase responding included Minutes 0 to 10, and late phase responding included Minutes 11 to 45. At the end of the testing period, animals were sacrificed using carbon dioxide. […]

SMILES | IC50 [1] | FT (mg/kg), active dose (Male Wistar albino rats)
O=c1[nH]c2ccc(C3=NOC(CN4CCC(Cc5ccccc5)CC4)C3)cc2o1 (racemic) [Example 1, 6-[5-(4-Benzylpiperidin-1-ylmethyl)-4,5-dihydroisoxazol-3-yl]-3H-benzoxazol-2-one] | 0.033 µM | >10 mg/kg
O=c1[nH]c2ccc(C3=NOC(CN4CCC(Cc5ccc(F)cc5)CC4)C3)cc2o1 (single isomer, unassigned; (-)) [Example 4b, (−)-6-{5-[4-(4-Fluorobenzyl)piperidin-1-ylmethyl]4,5-dihydroisoxazol-3-yl}-3H-benzoxazol-2-one] | 0.28 µM | >30 mg/kg
